Assay results as given in PubChem BioAssay AID1963842 (Molecular Pharmacology Branch, DTP, NCI, 2024).
pIC50: −log10 of the molar value.

System: 677734-321-R-J1-PDC complex spheroid viability
Assay: Anticancer human tumor 677734-321-R-J1-PDC patient-derived soft tissue sarcoma cell line growth inhibition [POLQ]
Settings: for pIC50: curve of first compound; for viability, T/C: stronger effect = lower value
Method: Multicellular complex tumor spheroid response to Polymerase (POL) inhibitors (novobiocin, ART-558, RP6685) in combination with a variety of drugs and investigational agents in selected tumor cell lines
The POL inhibitors (novobiocin, ART-558, and RP6685) were evaluated both individually and in combination with standard of care and investigational anticancer small molecules within a complex spheroid model of solid tumors. . Complex spheroids include a stromal component modeled by human endothelial cells (HUVEC) and fibroblasts modeled by human mesenchymal stem cells (MSCs). The concentration ranges selected for each drug and investigational agent were based upon clinically achievable concentrations if the clinical Cmax of the agent was known.
Compounds. The drugs and investigational agents: novobiocin (NSC847541), ART-558 (NSC835418), RP-6685 (NSC848927), peposertib (NSC802822), ceralasertib (NSC780249), elimusertib (NSC800525), camonsertib (NSC841442), AZD-1390 (NSC803789), olaparib (NSC753686), talazoparib (NSC767125), rucaparib (NSC756644), sotorasib (NSC818433), MRTX-1133 (NSC836407), SN-38 (NSC673596), topotecan (NSC609699), epotoside (NSC141540), doxorubicin (NSC123127), gemcitabine (NSC613327), 5-fluorouracil (NSC19893), paclitaxel (NSC125973), vemurafenib (NSC761431), MSA-2 (NSC828583), SN-011 (NSC837082), adavosertib (NSC754352), prexasertib (NSC758257), carboplatin (NSC241240) and oxaliplatin (NSC266046), were obtained from the National Cancer Institute (NCI) Developmental Therapeutics Program Chemical Repository (21). The FDA-approved anticancer drug set is available from the Developmental Therapeutics Program at https://dtp.cancer.gov/organization/dscb/obtaining/. […] The stock solutions were prepared in dimethyl sulfoxide (DMSO, Sigma-Aldrich, St. Louis, MO, cat. D2650), except for the platinum compounds which were prepared in saline (Quality Biological, Gaithersburg, MD, cat. 114-055-101), at 800-fold the tested concentration and stored at -70 degrees C prior to their use. All drugs and investigational agents were tested over a range starting from a high concentration at or near the clinical Cmax and decreasing in half-log increments. If the clinical Cmax for an agent had not been determined, the highest concentration tested was 10 microM, except for SN-38, which was tested at a high concentration of 1 microM.
Cell Culture. All cells were maintained in an incubator at 37 degrees C and 5% CO2 with 95% humidity. The PDC lines were cultured according to standard operating procedures established by the NCI PDMR (https://pdmr.cancer.gov). Table 3 of the manuscript, lists the cell lines along with the number of the three cell types plated to form the mct-spheroids and media for tumor cell growth. After thawing, all PDC lines, except 997537-175-T-J1-PDC and 415267-285-R-J2-PDC, were cultured in Matrigel-coated flasks prepared with a working solution of 1X Ham's F-12 nutrient mix, without supplementation (Thermo Fisher Scientific, cat. 11765054), 100 U/mL penicillin-streptomycin (Thermo Fisher Scientific, cat. 15140122), and 2.5% Matrigel (Corning Inc., Corning, NY, cat. 354248) for the first three passages. The two PDC lines 997537-175-T-J1-PDC and 415267-285-R-J2-PDC were cultured on uncoated flasks. The 857933-349-R-J2-PDC line was cultured in 6C/Colon 1B media containing advanced DMEM/F-12 (Thermo Fisher Scientific, cat. 12634028), 10 mM HEPES (Thermo Fisher Scientific, cat. 15630080), 1X GlutaMAX supplement (Thermo Fisher Scientific, cat. 35050061), 0.1 mg/mL primocin (InvivoGen, San Diego, CA, cat. ant-pm-2), 10% defined fetal bovine serum, heat inactivated (HyClone Laboratories Inc., Logan, UT, cat. SH30070.03HI), 50% L-WRN conditioned media (ATCC, cat. CRL-3276), 1.25 mM N-Acetyl-L-cysteine (Sigma-Aldrich, cat. A9165), 10 mM nicotinamide (Sigma-Aldrich, cat. N0636), 1X B-27 supplement (Thermo Fisher Scientific, cat. 17504044), 1X N-2 supplement (Thermo Fisher Scientific, cat. […]

[1] = second compound 0.0316 µM, first compound 0.0316 µM
[2] = second compound 0.0316 µM, first compound 0.1 µM
[3] = second compound 0.0316 µM, first compound 0.316 µM
[4] = second compound 0.0316 µM, first compound 1 µM
[5] = second compound 0.1 µM, first compound 0.0316 µM
[6] = second compound 0.1 µM, first compound 0.1 µM
[7] = second compound 0.1 µM, first compound 0.316 µM
[8] = second compound 0.1 µM, first compound 1 µM
[9] = second compound 0.316 µM, first compound 0.0316 µM
[10] = second compound 0.316 µM, first compound 0.1 µM
[11] = second compound 0.316 µM, first compound 0.316 µM
[12] = second compound 0.316 µM, first compound 1 µM
[13] = second compound 1 µM, first compound 0.0316 µM
[14] = second compound 1 µM, first compound 0.1 µM
[15] = second compound 1 µM, first compound 0.316 µM
[16] = second compound 1 µM, first compound 1 µM
[17] = second compound 3.16 µM, first compound 0.0316 µM
[18] = second compound 3.16 µM, first compound 0.1 µM
[19] = second compound 3.16 µM, first compound 0.316 µM
[20] = second compound 3.16 µM, first compound 1 µM
[21] = second compound 10 µM, first compound 0.0316 µM
[22] = second compound 10 µM, first compound 0.1 µM
[23] = second compound 10 µM, first compound 0.316 µM
[24] = second compound 10 µM, first compound 1 µM
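Further: spheroids exposed to compounds for one week.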
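Wherever viability, T/C is given: 100% = vehicle DMSO treated spheroids.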

## C=CCn1c(=O)c2cnc(Nc3ccc(N4CCN(C)CC4)cc3)nc2n1-c1cccc(C(C)(C)O)n1 + Cc1cccc(N(C)C(=O)C2C(O)CCN2c2nc(C)cc(C(F)(F)F)c2C#N)c1
Second compound 0.0316 µM
  pIC50: 6.20
Second compound 0.1 µM
  pIC50: 6.32
Second compound 0.316 µM
  pIC50: 6.18
Second compound 1 µM
  pIC50: 6.40
Second compound 3.16 µM
  pIC50: 6.27
Second compound 10 µM
  pIC50: 6.31
Second compound 0.0316 µM, first compound 0.00316 µM
  viability, T/C: 102%
Second compound 0.0316 µM, first compound 0.01 µM
  viability, T/C: 102%
[1]
  viability, T/C: 102%
[2]
  viability, T/C: 90.6%
[3]
  viability, T/C: 81%
[4]
  viability, T/C: 29.7%
Second compound 0.1 µM, first compound 0.00316 µM
  viability, T/C: 88.6%
Second compound 0.1 µM, first compound 0.01 µM
  viability, T/C: 92.4%
[5]
  viability, T/C: 106%
[6]
  viability, T/C: 78.4%
[7]
  viability, T/C: 67.4%
[8]
  viability, T/C: 21.7%
Second compound 0.316 µM, first compound 0.00316 µM
  viability, T/C: 96.7%
Second compound 0.316 µM, first compound 0.01 µM
  viability, T/C: 95.3%
[9]
  viability, T/C: 90.9%
[10]
  viability, T/C: 85.6%
[11]
  viability, T/C: 79%
[12]
  viability, T/C: 34.4%
Second compound 1 µM, first compound 0.00316 µM
  viability, T/C: 117%
Second compound 1 µM, first compound 0.01 µM
  viability, T/C: 93.7%
[13]
  viability, T/C: 98.9%
[14]
  viability, T/C: 85%
[15]
  viability, T/C: 51.4%
[16]
  viability, T/C: 30.2%
Second compound 3.16 µM, first compound 0.00316 µM
  viability, T/C: 107%
Second compound 3.16 µM, first compound 0.01 µM
  viability, T/C: 87.7%
[17]
  viability, T/C: 76.3%
[18]
  viability, T/C: 87.8%
[19]
  viability, T/C: 66.8%
[20]
  viability, T/C: 31.9%
Second compound 10 µM, first compound 0.00316 µM
  viability, T/C: 89.6%
Second compound 10 µM, first compound 0.01 µM
  viability, T/C: 82.6%
[21]
  viability, T/C: 95.3%
[22]
  viability, T/C: 82.3%
[23]
  viability, T/C: 70%
[24]
  viability, T/C: 18.6%

## O=C(c1cc(Cc2n[nH]c(=O)c3ccccc23)ccc1F)N1CCN(C(=O)C2CC2)CC1 + COC1C(OC(N)=O)C(O)C(Oc2ccc3c(O)c(NC(=O)c4ccc(O)c(CC=C(C)C)c4)c(=O)oc3c2C)OC1(C)C
Second compound 0.0316 µM
  pIC50: < 5.00
Second compound 0.1 µM
  pIC50: < 5.00
Second compound 0.316 µM
  pIC50: < 5.00
Second compound 1 µM
  pIC50: < 5.00
Second compound 3.16 µM
  pIC50: < 5.00
Second compound 10 µM
  pIC50: < 5.00
[1]
  viability, T/C: 108%
[2]
  viability, T/C: 105%
[3]
  viability, T/C: 103%
[4]
  viability, T/C: 110%
Second compound 0.0316 µM, first compound 3.16 µM
  viability, T/C: 102%
Second compound 0.0316 µM, first compound 10 µM
  viability, T/C: 86.4%
[5]
  viability, T/C: 104%
[6]
  viability, T/C: 112%
[7]
  viability, T/C: 101%
[8]
  viability, T/C: 104%
Second compound 0.1 µM, first compound 3.16 µM
  viability, T/C: 107%
Second compound 0.1 µM, first compound 10 µM
  viability, T/C: 79.6%
[9]
  viability, T/C: 112%
[10]
  viability, T/C: 111%
[11]
  viability, T/C: 104%
[12]
  viability, T/C: 111%
Second compound 0.316 µM, first compound 3.16 µM
  viability, T/C: 111%
Second compound 0.316 µM, first compound 10 µM
  viability, T/C: 78.1%
[13]
  viability, T/C: 108%
[14]
  viability, T/C: 105%
[15]
  viability, T/C: 111%
[16]
  viability, T/C: 99.9%
Second compound 1 µM, first compound 3.16 µM
  viability, T/C: 107%
Second compound 1 µM, first compound 10 µM
  viability, T/C: 81.2%
[17]
  viability, T/C: 117%
[18]
  viability, T/C: 111%
[19]
  viability, T/C: 113%
[20]
  viability, T/C: 103%
Second compound 3.16 µM, first compound 3.16 µM
  viability, T/C: 100%
Second compound 3.16 µM, first compound 10 µM
  viability, T/C: 87.3%
[21]
  viability, T/C: 118%
[22]
  viability, T/C: 106%
[23]
  viability, T/C: 108%
[24]
  viability, T/C: 112%
Second compound 10 µM, first compound 3.16 µM
  viability, T/C: 103%
Second compound 10 µM, first compound 10 µM
  viability, T/C: 88%
